Values joined by “and” are separate entries in the source; they are usually repeats but may differ in a detail not shown here. Equal values may be shown once.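 Cells were grown in 96-well plates and exposed to each compound for 48 hours at five concentrations; endpoints were interpolated linearly between bracketing concentrations, or set to the highest concentration if not reached. The concentration for 50% growth inhibition is given as GI50. The concentration for full growth arrest is given as TGI.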
What was measured:
Assay in all cases: DTP human tumour cell line panel, 48 h
[1] = tested on: MALME-3M melanoma
[2] = tested on: DU-145 prostate
[3] = tested on: MDA-MB-435
[4] = tested on: NCI-H226 lung
[5] = tested on: OVCAR-8 ovarian
[6] = tested on: HL-60(TB) leukemia
[7] = tested on: SK-MEL-5 melanoma
[8] = tested on: 786-0 renal
[9] = tested on: RXF 393 renal
[10] = tested on: SF-539 CNS
[11] = tested on: SF-295 CNS
[12] = tested on: NCI/ADR-RES ovarian

Cc1cccc(N=NC(=O)NNc2cccc(C)c2C)c1C
TGI [1]: 73.3 µM | TGI [2]: > 100 µM | TGI [3]: 64.9 µM | TGI [4]: > 100 µM | TGI [5]: > 100 µM | TGI [6]: 57.1 µM | TGI [7]: > 100 µM | TGI [8]: 86 µM

O=C1/C(=C/c2ccc([N+](=O)[O-])cc2)C(=O)N(c2ccccc2)C1c1ccccc1 (stereo unspecified)
TGI [9]: > 10 µM | TGI [2]: > 10 µM | TGI [3]: > 10 µM | TGI [10]: > 10 µM | TGI [11]: > 10 µM | TGI [4]: > 10 µM | TGI [5]: > 10 µM | TGI [12]: > 10 µM | TGI [6]: > 10 µM | TGI [7]: > 10 µM | TGI [8]: > 10 µM

O=C(NI1OC(=O)c2ccccc21)c1ccc(Cl)cc1
TGI [9]: > 100 µM | TGI [2]: > 100 µM | TGI [3]: > 100 µM | TGI [10]: > 100 µM | TGI [11]: > 100 µM | TGI [4]: > 100 µM | TGI [5]: > 100 µM | TGI [12]: > 100 µM | TGI [6]: > 100 µM | TGI [7]: > 100 µM | TGI [8]: > 100 µM

COc1cc(/C=C(\C#N)C(N)=O)cc(Br)c1O
TGI [1]: > 100 µM | TGI [9]: > 100 µM | TGI [10]: > 100 µM | TGI [11]: > 100 µM | TGI [4]: > 100 µM | TGI [5]: > 100 µM | TGI [12]: > 100 µM | GI50 [6]: 83.8 µM and 59.8 µM | TGI [6]: > 100 µM | TGI [7]: > 100 µM

CC1=NNC(N)=N/C1=C\C(Sc1ccc(Cl)cc1)c1ccc([N+](=O)[O-])cc1 (stereo unspecified)
TGI [1]: > 100 µM | TGI [9]: > 100 µM | TGI [2]: > 100 µM | TGI [3]: > 100 µM | TGI [11]: > 100 µM | TGI [4]: 68.1 µM | TGI [5]: > 100 µM | TGI [12]: > 100 µM | TGI [6]: 76.4 µM | TGI [7]: > 100 µM | TGI [8]: > 100 µM

Cc1ccc(/C=C2\CCCc3ccccc3C2=O)cc1
TGI [1]: 34.5 µM | TGI [2]: > 100 µM | TGI [3]: 8.46 µM | TGI [10]: 37.5 µM | TGI [11]: 16.6 µM | TGI [4]: 36.1 µM | TGI [5]: > 100 µM | TGI [12]: 99.3 µM | TGI [6]: 30.7 µM | TGI [8]: > 100 µM

O=C(N/N=C/c1ccccc1)c1c(-c2cccnc2)cnc2ccccc12
TGI [1]: > 100 µM | TGI [9]: > 100 µM | TGI [2]: > 100 µM | TGI [10]: > 100 µM | TGI [11]: > 100 µM | TGI [4]: > 100 µM | TGI [5]: > 100 µM | TGI [12]: > 100 µM | TGI [6]: > 100 µM | TGI [7]: > 100 µM | TGI [8]: > 100 µM

COC1C=CC(O)C(CO)O1 (stereo unspecified)
TGI [1]: > 100 µM | TGI [9]: > 100 µM | TGI [10]: > 100 µM | TGI [11]: > 100 µM | TGI [5]: > 100 µM | TGI [6]: > 100 µM | TGI [7]: > 100 µM

OCC(O)COCn1nncc1Cn1ncc2c(SCc3ccccc3)ncnc21 (stereo unspecified)
TGI [2]: > 100 µM | TGI [3]: > 100 µM | TGI [10]: > 100 µM | TGI [11]: > 100 µM | TGI [5]: > 100 µM | TGI [12]: > 100 µM | TGI [7]: > 100 µM | TGI [8]: > 100 µM

CCOc1cn(C2CC(O)C(CO)O2)c(=O)[nH]c1=O (stereo unspecified)
TGI [1]: > 100 µM | TGI [9]: > 100 µM | TGI [2]: > 100 µM | TGI [3]: > 100 µM | TGI [4]: > 100 µM | TGI [12]: > 100 µM | TGI [6]: > 100 µM | TGI [7]: > 100 µM | TGI [8]: > 100 µM

Oc1ccc(-c2nc(-c3cccnc3)c(-c3ccc(Cl)cc3)[nH]2)cc1
TGI [1]: 26.8 µM | TGI [9]: 26.5 µM | TGI [2]: 29.4 µM | TGI [3]: 25.5 µM | TGI [11]: 27.3 µM | TGI [4]: 33.3 µM | TGI [5]: 28.4 µM | TGI [12]: 36.9 µM | TGI [6]: 36.7 µM | TGI [7]: 27.2 µM | TGI [8]: 28.8 µM

COc1ccc(C2OC[C@H]3O[C@@H](OCc4ccccc4)[C@H](O)[C@@H](O)[C@@H]3O2)cc1 (stereo partly specified)
TGI [9]: > 100 µM | TGI [2]: > 100 µM | TGI [3]: > 100 µM | TGI [10]: > 100 µM | TGI [11]: > 100 µM | TGI [4]: > 100 µM | TGI [5]: > 100 µM | TGI [12]: > 100 µM | TGI [7]: > 100 µM

COCN(CCC1=CCCCC1)C(=O)OC
TGI [1]: > 100 µM | TGI [9]: > 100 µM | TGI [2]: > 100 µM | TGI [3]: > 100 µM | TGI [11]: > 100 µM | TGI [5]: > 100 µM | TGI [12]: > 100 µM | TGI [7]: > 100 µM | TGI [8]: > 100 µM

COc1ccccc1/C=C1\SC(=S)N(/C=C2\C(=O)Oc3ccccc3C2=O)C1=O
TGI [1]: 64 µM | TGI [2]: > 100 µM | TGI [3]: 86.5 µM | TGI [10]: 85.3 µM | TGI [4]: > 100 µM | TGI [5]: > 100 µM | TGI [12]: > 100 µM | TGI [7]: 51.4 µM | TGI [8]: > 100 µM

O=C(O)Cc1cccc2c(=O)c3ccccc3oc12
TGI [1]: > 100 µM | TGI [2]: > 100 µM | TGI [3]: > 100 µM | TGI [10]: > 100 µM | TGI [11]: > 100 µM | TGI [4]: > 100 µM | TGI [5]: > 100 µM | TGI [12]: > 100 µM | TGI [6]: > 100 µM | TGI [7]: > 100 µM | TGI [8]: > 100 µM

O=Cc1ccc2c(c1)CC1(Cc3ccccc3C1)C2
TGI [1]: 36.3 µM | TGI [9]: > 100 µM | TGI [3]: 37.6 µM | TGI [10]: 33.2 µM | TGI [11]: 94.5 µM | TGI [4]: 73.2 µM | TGI [5]: 39 µM | TGI [12]: 79.8 µM | TGI [6]: 39.5 µM | TGI [7]: 29.4 µM | TGI [8]: 29.9 µM

From PubChem BioAssay (NCI)
